According to publication PMC6277767, “Broad and Region-Specific Impacts of the Synthetic Cannabinoid CP 55,940 in Adolescent and Adult Female Mouse Brains” (Frontiers in Molecular Neuroscience, 2018):

Test system: CD1 female mouse brain lipidome
Experiment: Brain-region lipid levels (HPLC/MS/MS lipidomics) 2 h after single i.p. 3 mg/kg CP 55,940 vs vehicle
Assay type: in vivo
Design: N-arachidonoyl phenylalanine level, Mean / N-stearoyl tryptophan level, Mean / N-stearoyl proline level, Mean / N-stearoyl leucine level, Mean / N-stearoyl phenylalanine level, Mean / N-stearoyl serine level, Mean / N-stearoyl methionine level, Mean: unit: moles per gram
Description: The Bloomington Institutional Animal Care and Use Committee of Indiana University reviewed and approved the animal procedures. Female mice from the CD1 strain were utilized to match our study examining THC’s effects on the brain lipidome ([Leishman et al., 2018]). Mice were given a single i.p. injection of either 3 mg/kg CP or 1:1:18 cremophor:ethanol:saline vehicle (please refer to the section “3 mg/kg CP Is Relevant for Synthetic Cannabinoid Abuse and Has Stronger Effects on the Female Mouse Brain Lipidome During Adolescence” for a justification of dose and use of female mice). Three different age groups were given injections: PND 35 and PND 50 adolescents, and adult mice (PND 113). At least eight mice in each age group received CP and at least eight received vehicle. Matching the THC study time course ([Leishman et al., 2018]), mice were sacrificed via rapid decapitation 2 h after injection. Brains were immediately removed and flash-frozen in liquid nitrogen, and then stored at -80°C until dissections were performed. Brains were dissected on an ice-cold dissection plate into the following regions: STR, HIPP, CER, THAL, CTX, HYP, MID, and STEM. These abbreviations for these brain areas will be used exclusively when discussing the results generated by these specific dissections. Each dissected area was immediately placed in liquid nitrogen and then stored at -80°C until used for lipid extraction.
Tissue extracts were performed as previously described ([Bradshaw et al., 2006]; [Stuart et al., 2013]; [Raboune et al., 2014]; [Leishman et al., 2016a],[b], [2017], [2018]). First, samples were shock frozen in liquid nitrogen, weighed, and transferred to a centrifuge tube. The mass of the largest sample was multiplied by 50 to determine how many milliliters of HPLC-grade methanol (Fisher, Fair Lawn, NJ, United States) to add. Then, samples were spiked with 500 pmol deuterium-labeled NAGly (d8NAGly; Cayman Chemical, Ann Arbor, MI, United States). Samples were placed on ice in darkness for 2 h then individually homogenized and centrifuged at 19,000 × g for 20 min at 20°C. Supernatants were diluted with HPLC water (purified in house) to make a solution of 75% water, 25% supernatant. Lipids were partially purified on C18 solid phase extraction columns (Agilent, Palo Alto, CA, United States). A series of four elutions with 1.5 mL of 60%, 75%, 85%, and 100% methanol were collected ([Stuart et al., 2013]; [Leishman et al., 2016a],[b], [2018]).
As previously described ([Bradshaw et al., 2006]; [Tan et al., 2006]; [Smoum et al., 2010]; [Stuart et al., 2013]; [Tortoriello et al., 2013]; [Raboune et al., 2014]; [Leishman et al., 2016a],[b], [2017], [2018]), samples were analyzed using an Applied Biosystems API 3000 triple quadrupole mass spectrometer with electrospray ionization (Foster City, CA, United States). Using an Agilent XDB-C18 reversed phase analytical column and optimized mobile phase gradients, 20 μL from each elution were chromatographed. Two Shimadzu 10ADvp pumps (Columbia, MD, United States) provided the pressure for gradient elution. Mobile phase A: 20% methanol, 80% water (v/v) and 1 mM ammonium acetate (Sigma, St. Louis, MO, United States). Mobile phase B: 100% methanol, 1 mM ammonium acetate. Every method run began with 0% mobile phase B, reached 100% mobile phase B flowing at 0.2 mL/min, and gradually returned to 0% mobile phase B.
This screening library will be referred to as the lipidome when discussing data from this study. HPLC/MS/MS data were analyzed using Analyst software (Applied Biosystems) ([Bradshaw et al., 2006]; [Tan et al., 2006]; [Stuart et al., 2013]; [Tortoriello et al., 2013]; [Raboune et al., 2014]; [Leishman et al., 2016a],[b], [2017], [2018]). Chromatograms (Supplementary Figure 3) were generated by determining the retention time of analytes from the analytical column with a [M-1] or [M+1] parent peak and a fragmentation peak corresponding to the programmed values. […]

[1] = midbrain, PND 35 WT adolescent female mice, 3 mg/kg
[2] = striatum, PND 50, 3mg/kg CP 55,940 vs Veh
[3] = striatum, PND 50 female mice, 3mg/kg CP 55,940, mean
[4] = striatum, adult, 3 mg/kg CP 55,940

## CCCCCCC(C)(C)c1ccc([C@@H]2C[C@H](O)CC[C@H]2CCCO)c(O)c1 [CP 55,940]
[1]
  N-stearoyl GABA level, Mean: 7.82E-12
  N-stearoyl alanine level, Mean: 9.99E-12
  N-stearoyl ethanolamine level, Mean: 1.75E-11
  N-stearoyl glycine level, Mean: 2.16E-11
  N-stearoyl leucine level, Mean: 1.07E-12
  N-stearoyl methionine level, Mean: 2.71E-12
  N-stearoyl phenylalanine level, Mean: 2.34E-12
  N-stearoyl proline level, Mean: 3.86E-13
  N-stearoyl serine level, Mean: 3.54E-11
  N-stearoyl tryptophan level, Mean: 7E-13
  N-stearoyl tyrosine level, Mean: 2.3E-13
  Oleic acid level, Mean: 1.55E-09
  PGE2 level, Mean: 5.98E-10
  PhosphoLEA level, Mean: 1.57E-11
[2]
  2-arachidonoyl glycerol, Direction (relative to Veh): ↓
  2-arachidonoyl glycerol, Magnitude (x Veh level): 0.86 x Veh level
  2-linoleoyl glycerol Direction (relative to Veh): ↓
  2-linoleoyl glycerol Magnitude (x Veh level): 0.77 x Veh level
  Arachidonic acid, Direction (relative to Veh): ↓
  Arachidonic acid, Magnitude (x Veh level): 0.81 x Veh level
  Linoleic acid, Direction (relative to Veh): ↓
  Linoleic acid, Magnitude (x Veh level): 0.78 x Veh level
  N-arachidonoyl GABA Direction (relative to Veh): ↓
  N-arachidonoyl GABA Magnitude (x Veh level): 0.71 x Veh level
  N-arachidonoyl glycine Direction (relative to Veh): ↓
  N-arachidonoyl glycine Magnitude (x Veh level): 0.65 x Veh level
  N-arachidonoyl phenylalanine, Direction (relative to Veh): ↓
  N-arachidonoyl phenylalanine, Magnitude (x Veh level): 0.78 x Veh level
  N-arachidonoyl taurine Direction (relative to Veh): ↓
  N-arachidonoyl taurine Magnitude (x Veh level): 0.91 x Veh level
  N-docosahexaenoyl GABA Direction (relative to Veh): ↓
  N-docosahexaenoyl GABA Magnitude (x Veh level): 0.81 x Veh level
  N-docosahexaenoyl glycine Direction (relative to Veh): ↓
  N-docosahexaenoyl glycine Magnitude (x Veh level): 0.51 x Veh level
  N-palmitoyl leucine, Direction (relative to Veh): ↑
  N-palmitoyl leucine, Magnitude (x Veh level): 1.33 x Veh level
  N-palmitoyl tyrosine Magnitude (x Veh level): 1.35 x Veh level
  N-palmitoyl tyrosine, Direction (relative to Veh): ↑
  N-palmitoyl valine Direction (relative to Veh): ↑
  N-palmitoyl valine Magnitude (x Veh level): 1.72 x Veh level
  Oleic acid, Direction (relative to Veh): ↓
  Oleic acid, Magnitude (x Veh level): 0.79 x Veh level
  PGF2α Direction (relative to Veh): ↑
  PGF2α Magnitude (x Veh level): 1.16 x Veh level
[3]
  2-arachidonoyl-sn-glycerol level: 1.35E-10
  2-linoleoyl-sn-glycerol level: 8.22E-11
  2-oleoyl-sn-glycerol level: 9.26E-10
  2-palmitoyl-sn-glycerol level: 1.09E-09
  11-OH-THC level: BDL
  11-nor-9-carboxyTHC level: BDL
  Arachidonic acid level: 2.35E-10
  Cannabidiol level: BDL
  Linoleic acid level: 1.59E-10
  N-arachidonoyl GABA level: 4.29E-12
  N-arachidonoyl dopamine level: BDL
  N-arachidonoyl ethanolamine level: 2.93E-11
  N-arachidonoyl glycine level: 5.51E-13
  N-arachidonoyl phenylalanine level: 3.83E-13
  N-arachidonoyl proline level: BDL
  N-arachidonoyl taurine level: 2.53E-11
  N-arachidonoyl tryptophan level: BDL
  N-docosahexaenoyl GABA level: 4.96E-13
  N-docosahexaenoyl ethanolamine level: 3.09E-11
  N-docosahexaenoyl glycine level: 1.15E-13
  N-docosahexaenoyl leucine level: 1.19E-13
  N-docosahexaenoyl methionine level: BDL
  N-docosahexaenoyl phenylalanine level: 4.38E-13
  N-docosahexaenoyl proline level: BDL
  N-docosahexaenoyl tryptophan level: BDL
  N-docosahexaenoyl valine level: BDL
  N-linoleoyl alanine level: 1.36E-13
  N-linoleoyl ethanolamine level: 5.34E-11
  N-linoleoyl glycine level: 6.89E-14
  N-linoleoyl leucine level: 4.43E-14
  N-linoleoyl proline level: BDL
  N-linoleoyl serine level: 1.09E-10
  N-linoleoyl tryptophan level: BDL
  N-linoleoyl tyrosine level: BDL
  N-nervonoyl valine level: BDL
  N-oleoyl GABA level: 1.25E-12
  N-oleoyl alanine level: 1.2E-12
  N-oleoyl dopamine level: BDL
  N-oleoyl ethanolamine level: 6.94E-11
  N-oleoyl glycine level: 1.27E-12
  N-oleoyl leucine level: 4.16E-13
  N-oleoyl methionine level: 3.74E-13
  N-oleoyl phenylalanine level: 5.89E-13
  N-oleoyl proline level: BDL
  N-oleoyl serine level: 2.17E-10
  N-oleoyl tryptophan level: BDL
  N-oleoyl tyrosine level: 1.31E-13
  N-palmitoyl GABA level: 3.11E-12
  N-palmitoyl alanine level: 4.63E-12
  N-palmitoyl ethanolamine level: 6.26E-11
  N-palmitoyl glycine level: 5.26E-12
  N-palmitoyl leucine level: 1.06E-12
  N-palmitoyl methionine level: 1.12E-12
  N-palmitoyl phenylalanine level: 9.78E-13
  N-palmitoyl proline level: BDL
  N-palmitoyl serine level: 2.18E-11
  N-palmitoyl tryptophan level: BDL
  N-palmitoyl tyrosine level: 4.79E-13
  N-palmitoyl valine level: 1.79E-13
  N-stearoyl GABA level: 3.86E-12
  N-stearoyl alanine level: 6.45E-13
  N-stearoyl ethanolamine level: 2.79E-11
  N-stearoyl glycine level: 4.91E-13
  N-stearoyl leucine level: 1.1E-12
  N-stearoyl methionine level: 8.01E-13
  N-stearoyl phenylalanine level: 1.27E-12
  N-stearoyl proline level: BDL
  N-stearoyl serine level: 5.13E-11
  N-stearoyl tryptophan level: BDL
  N-stearoyl tyrosine level: 9.9E-14
  Oleic acid level: 2.17E-10
  PGE2 level: 7.65E-11
  PGF2α level: 9.33E-11
  THC level: BDL
[4]
  2-arachidonoyl-sn-glycerol level, Mean: 1.6E-09
  2-linoleoyl-sn-glycerol level, Mean: 1.72E-10
  2-oleoyl-sn-glycerol level, Mean: 1.58E-09
  2-palmitoyl-sn-glycerol level, Mean: 1.51E-10
  6-ketoPGF1α level, Mean: PISSR
  11-OH-THC level, Mean: BDL
  11-nor-9-carboxyTHC level, Mean: BDL
  Arachidonic acid level, Mean: 1.93E-09
  Cannabidiol level, Mean: BDL
  Linoleic acid level, Mean: 7.69E-10
  N- stearoyl valine level, Mean: PISSR
  N-arachidonoyl GABA level, Mean: 2.43E-11
  N-arachidonoyl alanine level, Mean: 2.03E-12
  N-arachidonoyl dopamine level, Mean: BDL
  N-arachidonoyl ethanolamine level, Mean: 2.19E-11
  N-arachidonoyl glycine level, Mean: 6.38E-13
  N-arachidonoyl methionine level, Mean: BDL
  N-arachidonoyl phenylalanine level, Mean: 9.64E-14
  N-arachidonoyl proline level, Mean: BDL
  N-arachidonoyl serine level, Mean: PISSR
  N-arachidonoyl taurine level, Mean: 9.74E-11
  N-arachidonoyl tryptophan level, Mean: BDL
  N-arachidonoyl tyrosine level, Mean: PISSR
  N-docosahexaenoyl GABA level, Mean: PISSR
  N-docosahexaenoyl alanine level, Mean: BDL
  N-docosahexaenoyl ethanolamine level, Mean: 2.36E-11
  N-docosahexaenoyl glycine level, Mean: PISSR
  N-docosahexaenoyl leucine level, Mean: PISSR
  N-docosahexaenoyl methionine level, Mean: BDL
  N-docosahexaenoyl phenylalanine level, Mean: PISSR
  N-docosahexaenoyl proline level, Mean: BDL
  N-docosahexaenoyl serine level, Mean: PISSR
  N-docosahexaenoyl tryptophan level, Mean: BDL
  N-docosahexaenoyl tyrosine level, Mean: PISSR
  N-docosahexaenoyl valine level, Mean: BDL
  N-linoleoyl GABA level, Mean: PISSR
  N-linoleoyl alanine level, Mean: PISSR
  N-linoleoyl ethanolamine level, Mean: 3.83E-11
  N-linoleoyl glycine level, Mean: PISSR
  N-linoleoyl leucine level, Mean: PISSR
  N-linoleoyl methionine level, Mean: BDL
  N-linoleoyl phenylalanine level, Mean: PISSR
  N-linoleoyl proline level, Mean: BDL
  N-linoleoyl serine level, Mean: 1.09E-10
  N-linoleoyl tryptophan level, Mean: BDL
  N-linoleoyl tyrosine level, Mean: BDL
  N-linoleoyl valine level, Mean: PISSR
  N-nervonoyl valine level, Mean: BDL
  N-oleoyl GABA level, Mean: 1.7E-11
  N-oleoyl alanine level, Mean: 3.96E-12
  N-oleoyl dopamine level, Mean: BDL
  N-oleoyl ethanolamine level, Mean: 1.57E-10
  N-oleoyl glycine level, Mean: 5.26E-13
  N-oleoyl leucine level, Mean: 1.99E-12
  N-oleoyl methionine level, Mean: PISSR
  N-oleoyl phenylalanine level, Mean: 4.84E-13
  N-oleoyl proline level, Mean: BDL
  N-oleoyl serine level, Mean: 5.05E-10
  N-oleoyl tryptophan level, Mean: BDL
  N-oleoyl tyrosine level, Mean: PISSR
  N-oleoyl valine level, Mean: PISSR
  N-palmitoyl GABA level, Mean: 2.94E-11
  N-palmitoyl alanine level, Mean: 3.83E-12
  N-palmitoyl ethanolamine level, Mean: 7.87E-11
  N-palmitoyl glycine level, Mean: 2.5E-12
  N-palmitoyl leucine level, Mean: 3E-12
  N-palmitoyl methionine level, Mean: PISSR
  N-palmitoyl phenylalanine level, Mean: 3.31E-13
  N-palmitoyl proline level, Mean: PISSR
  N-palmitoyl serine level, Mean: 4.99E-11
  N-palmitoyl tryptophan level, Mean: BDL
  N-palmitoyl tyrosine level, Mean: 2.47E-12
  N-palmitoyl valine level, Mean: PISSR
  N-stearoyl GABA level, Mean: 2.26E-11
  N-stearoyl alanine level, Mean: 4.15E-12
  N-stearoyl ethanolamine level, Mean: 3.49E-11
  N-stearoyl glycine level, Mean: 3.37E-12
  N-stearoyl leucine level, Mean: 3.52E-12
  N-stearoyl phenylalanine level, Mean: 4.25E-13
  N-stearoyl proline level, Mean: BDL
  N-stearoyl serine level, Mean: PISSR
  N-stearoyl tryptophan level, Mean: BDL
  Oleic acid level, Mean: 1.22E-09
  PGE2 level, Mean: 2.64E-10
  PhosphoLEA level, Mean: 2.11E-11
  THC level, Mean: BDL
